The results in this text go back to US12594283B2 (The Medical College of Wisconsin, Inc., priority 2019, dated 2026).

Assay type in all cases: cell-based
Assay [1] deals with LKR13 mouse lung cancer cells. Kind of assay: LKR13 cell proliferation, IncuCyte. From the text:
(§1) FIG. 3. […] Cell proliferation was monitored in real-time with the continuous presence of indicated treatments until the end of each experiment. The cell confluence (as control groups reach 98% confluency) is plotted against concentration. Dashed lines represent the fitting curves used to determine the IC50 values as indicated.
(§2) The IncuCyte Live-Cell Imaging system (IncuCyte Essen Bioscience Inc., Ann Arbor, MI) was used to monitor cell proliferation.^11-13 As shown in previous publications,^11,12 this imaging system is probe-free and noninvasive, and enables continuous monitoring of cell confluence over several days. The increase in the percentage of cell confluence was used as a surrogate marker of cell proliferation. In a 96-well plate, cells were plated at 1,000 cells per well in triplicates and left to adhere overnight.

The target of assay [2] is T1, mitochondrial complex III (Homo sapiens, UniProt P00156+P47985).
T1 construct: endogenous in cells; host or cells: MiaPaCa-2
The assay is described as follows: Mitochondrial complex III-driven oxygen consumption rate (Seahorse XF96) in permeabilized MiaPaCa-2 cells. The conditions noted are these: 24 h treatment. Here is the method: FIG. 2. Effects of Mito-ATO analogs on the oxygen consumption induced by mitochondrial complexes I and III. […] MiaPaCa-2 cells were treated with Mito-ATO for 24 h. Relative complex I (1.5 mM malate, 10 mM pyruvate, 10 mM ADP)-driven OCR (left) and relative complex III (0.5 mM duroquinol, 10 mM ADP)-driven OCR (right) were monitored by XF-96 analyser. Either Rot (complex I inhibitor) or antimycin A (AA, complex III inhibitor) was acutely added and OCR assayed immediately. […] Dashed lines represent the fitting curves used for determination of the IC50 values. (n.a., not applicable).
The mitochondrial complex activities were assessed by measuring the oxygen consumption rate (OCR) using the Seahorse technique.^6,11-4 MiaPaCa-2 cells were treated separately with Mito-ATO analogs at different concentrations for 24 h and OCR was measured.
Mitochondrial bioenergetic function was measured in real time using the Seahorse XF 96 Extracellular Flux Analyzer (Agilent, North Billerica, MA).^11-13,22 The OCR-based assessment of mitochondrial complex activities was carried out on acutely permeabilized cells in the presence of different mitochondrial substrates, i.e., pyruvate/malate, for complex I and duroquinol for complex III.^11,14,31,32 Rot, malonate, and antimycin A (Sigma-Aldrich, St. Louis, MO) were used as specific inhibitors of mitochondrial complexes I, II, and III, respectively. Briefly, cells that were intact after treatments were immediately permeabilized using the Seahorse XF Plasma Membrane Permeabilizer (Agilent). The mitochondrial complex I-driven OCR was assayed in mannitol and sucrose buffer^31 containing 10 mM pyruvate and 1.5 mM malate (substrates for complex I) and 10 mM malonate (which inhibits complex II activities). The mitochondrial complex III-driven OCR was assayed in mannitol and sucrose buffer containing 0.5 mM duroquinol (substrate for complex III) and 1 μM Rot and 10 mM malonate (which inhibit both complex I and II activities). The mitochondrial complex-dependent oxygen consumption (calculated as Rot- or antimycin A-inhibitable OCR equals basal OCR less OCR after Rot or antimycin A injection) was plotted against concentrations to determine the IC50 values.

Assay [3] relates to MDA-MB-231 human breast cancer cells. The assay is described as follows: MDA-MB-231 cell proliferation, IncuCyte. The conditions noted are these: MDA-MB-231 cells.
Description: as §1, §2

The target in assay [4] is mitochondrial complex I (Homo sapiens, UniProt O75251+O75306+P03886). Kind of assay: Mitochondrial complex I-driven oxygen consumption rate (Seahorse XF96) in permeabilized MiaPaCa-2 cells. As to conditions: 24 h treatment. As for the experimental part:
FIG. 2. […] Relative complex I (1.5 mM malate, 10 mM pyruvate, 10 mM ADP)-driven OCR (left) and relative complex III (0.5 mM duroquinol, 10 mM ADP)-driven OCR (right) were monitored by XF-96 analyser. Either Rot (complex I inhibitor) or antimycin A (AA, complex III inhibitor) was acutely added and OCR assayed immediately. […] Dashed lines represent the fitting curves used for determination of the IC50 values.
Briefly, cells that were intact after treatments were immediately permeabilized using the Seahorse XF Plasma Membrane Permeabilizer (Agilent). The mitochondrial complex I-driven OCR was assayed in mannitol and sucrose buffer^31 containing 10 mM pyruvate and 1.5 mM malate (substrates for complex I) and 10 mM malonate (which inhibits complex II activities). The mitochondrial complex III-driven OCR was assayed in mannitol and sucrose buffer containing 0.5 mM duroquinol (substrate for complex III) and 1 μM Rot and 10 mM malonate (which inhibit both complex I and II activities). The mitochondrial complex-dependent oxygen consumption (calculated as Rot- or antimycin A-inhibitable OCR equals basal OCR less OCR after Rot or antimycin A injection) was plotted against concentrations to determine the IC50 values.

mitochondrial complex I, sequence (O75306 34-463): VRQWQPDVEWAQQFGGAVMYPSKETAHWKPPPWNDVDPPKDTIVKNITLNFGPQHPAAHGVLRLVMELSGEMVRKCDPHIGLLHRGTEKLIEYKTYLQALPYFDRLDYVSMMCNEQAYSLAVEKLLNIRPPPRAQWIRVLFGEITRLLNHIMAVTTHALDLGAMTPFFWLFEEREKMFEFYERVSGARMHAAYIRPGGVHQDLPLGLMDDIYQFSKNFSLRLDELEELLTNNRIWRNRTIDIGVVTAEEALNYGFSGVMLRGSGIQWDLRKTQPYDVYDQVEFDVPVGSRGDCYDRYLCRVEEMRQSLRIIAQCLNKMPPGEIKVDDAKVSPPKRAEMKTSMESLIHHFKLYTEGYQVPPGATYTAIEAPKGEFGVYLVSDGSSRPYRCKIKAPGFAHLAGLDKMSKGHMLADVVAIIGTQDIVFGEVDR
mitochondrial complex I, sequence (O75251 39-213): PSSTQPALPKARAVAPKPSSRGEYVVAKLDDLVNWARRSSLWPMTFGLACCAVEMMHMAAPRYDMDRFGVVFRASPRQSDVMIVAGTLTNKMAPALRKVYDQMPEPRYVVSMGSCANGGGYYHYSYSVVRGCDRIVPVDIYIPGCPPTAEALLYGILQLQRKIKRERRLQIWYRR
mitochondrial complex I, sequence (P03886 whole entry): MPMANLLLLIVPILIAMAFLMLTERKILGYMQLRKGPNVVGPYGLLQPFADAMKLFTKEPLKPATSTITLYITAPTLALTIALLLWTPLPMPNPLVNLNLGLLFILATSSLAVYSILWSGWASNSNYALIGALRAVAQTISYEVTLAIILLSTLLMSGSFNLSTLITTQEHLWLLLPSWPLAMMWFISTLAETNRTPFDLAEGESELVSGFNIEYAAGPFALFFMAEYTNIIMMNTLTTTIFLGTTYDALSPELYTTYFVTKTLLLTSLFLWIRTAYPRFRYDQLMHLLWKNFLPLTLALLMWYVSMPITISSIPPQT

The IC50 is the concentration needed to halve the response being measured. Take `O=C1C(OCCCCCCCCCC[P+](c2ccccc2)(c2ccccc2)c2ccccc2)=C([C@H]2CC[C@H](c3ccc(Cl)cc3)CC2)C(=O)c2ccccc21` [Mito10-ATO]: the “effect on cell proliferation” value in assay [1] and in assay [3] was “effective at halting cell proliferation” in each case. Moreover, the “inhibition of complex III-induced oxygen consumption” value in assay [2] was “potently inhibit”. The IC50 in assay [2] (duroquinol, antimycin A-inhibitable OCR, read-out: IC50 to inhibit oxygen consumption by complex III) stood at 780 nM. In addition, the “inhibition of complex I-induced oxygen consumption” value in assay [4] was “potently inhibit”.
